Assays:
[1] = system: primary human CD34+ cells; assay: Ex vivo expansion of primary human CD34+ cells in the presence of cytokines (Example 1); type: cell-based; settings: relative to vehicle-cultured CB derived CD34+ cells
Description: (§1) Methods. […] Cell number and immunophenotype were assessed by flow cytometry, and HSC function was evaluated by cell and molecular assays in vitro. The expanded cells were transplanted into sub-lethally irradiated NSG mice to evaluate engraftment potential in vivo. For editing studies, mPB and BM CD34+ cells were electroporated with CRISPR/Cas9 RNPs targeting the beta-2 microglobulin (B2M) cell surface protein. Editing rates were evaluated by flow cytometry based on loss of protein expression and TIDE analysis. Edited cells were expanded in the presence of AHR antagonist or vehicle and transplanted into NSG mice. The AHR antagonist used in the experiments described in this Example is Compound 26 herein. Engraftment and editing rates were evaluated by flow cytometry of the peripheral blood and bone marrow.

NSG mice [2] = assay: Transplant of expanded cells into sub-lethally irradiated NSG mice, engraftment and editing rates by flow cytometry (Example 1); type: in vivo, mouse; settings: for engraftment in NSG mice: relative to vehicle-cultured CB derived CD34+ cells
Description: as §1

AHR = target: T1, AHR (Homo sapiens, UniProt P35869); assay: Dioxin response element luciferase reporter assay; type: cell-based
T1 sequence (P35869 11-848): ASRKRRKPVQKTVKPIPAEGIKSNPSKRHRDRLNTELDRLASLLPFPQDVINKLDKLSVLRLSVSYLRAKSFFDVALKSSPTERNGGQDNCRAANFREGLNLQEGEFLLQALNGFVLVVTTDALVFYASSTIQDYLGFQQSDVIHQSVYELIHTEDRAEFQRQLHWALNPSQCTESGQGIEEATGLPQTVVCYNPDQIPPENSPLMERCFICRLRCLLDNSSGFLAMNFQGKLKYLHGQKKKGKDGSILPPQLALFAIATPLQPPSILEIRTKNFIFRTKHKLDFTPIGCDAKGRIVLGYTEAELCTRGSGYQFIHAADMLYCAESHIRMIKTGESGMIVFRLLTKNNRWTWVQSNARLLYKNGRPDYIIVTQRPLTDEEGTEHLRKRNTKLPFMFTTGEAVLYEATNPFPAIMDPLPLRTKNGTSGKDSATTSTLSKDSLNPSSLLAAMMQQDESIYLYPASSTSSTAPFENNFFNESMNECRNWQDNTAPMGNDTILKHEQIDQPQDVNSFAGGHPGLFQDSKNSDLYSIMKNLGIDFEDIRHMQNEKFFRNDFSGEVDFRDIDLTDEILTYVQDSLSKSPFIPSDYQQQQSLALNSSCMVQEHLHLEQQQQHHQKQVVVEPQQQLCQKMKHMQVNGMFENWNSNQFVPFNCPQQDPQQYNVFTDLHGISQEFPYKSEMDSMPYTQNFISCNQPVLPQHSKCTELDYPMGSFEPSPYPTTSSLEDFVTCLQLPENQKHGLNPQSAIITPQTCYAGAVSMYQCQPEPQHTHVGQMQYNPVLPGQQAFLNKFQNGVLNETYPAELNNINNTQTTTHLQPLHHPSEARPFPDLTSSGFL

[3] = system: mPB and BM derived CD34+ cells; assay: Expansion of CRISPR/Cas9 B2M-edited mPB and BM CD34+ cells (Example 1); type: cell-based, human; settings: 7 days of expansion, AHR antagonist = Compound 26
Description: as §1

[4] = system: CD34+ cells from mPB and bone marrow (BM); assay: Ex vivo expansion of lentivirally transduced or CRISPR/Cas9 B2M-edited CD34+ cells (Example 2); type: cell-based, human; settings: AHR antagonist = Compound 26
Description: Lentiviral Transduction: Cryopreserved CD34+ cells from mobilized peripheral blood (mPB) were thawed and cultured overnight in media with cytokines and either vehicle (DMSO) or the AHR antagonist (expanded). The following day, cells were plated on retronectin-coated plates and transduced with a lentiviral vector, containing a green fluorescent protein (GFP) transgene under the control of the MND promoter, at an MOI of 50 in the presence of vehicle or the AHR antagonist. 24 hours later, cells were harvested, washed, and resuspended in media with cytokines and the appropriate compound.
CRISPR/Cas9 Editing and Expansion: Cryopreserved CD34+ cells from mPB and bone marrow (BM) were thawed and cultured overnight in media with cytokines and either vehicle or the AHR antagonist. Cells were electroporated with Cas9 protein (Aldevron) and synthetic, chemically-modified gRNA (Synthego) targeting beta-2-microglobulin (B2M) as a ribonucleotide protein (RNP).

NSG mice [5] = assay: Transplant of gene-modified, expanded CD34+ cells into NSG mice (Example 2); type: in vivo, mouse; settings: AHR antagonist = Compound 26
Excerpt: Transplant into NSG mice: All of the progeny from cultured cells were transplanted into sub-lethally irradiated, female, 6-8 week old NSG mice. Engraftment and transduction/editing rates were monitored monthly by flow cytometry. “Minimally manipulated” controls were transplanted one day after editing for a total culture time of 2 days.

[6] = system: CD34+CD90+ mobilized peripheral blood cells; assay: Cell cycle phase of CD34+CD90+ cells in culture, mobilized peripheral blood (Example 5); type: cell-based; settings: cytokines, same in presence or absence of Compound 26 (500 nM)
[7] = system: CD34+CD90+ cord blood cells; assay: Cell cycle phase of CD34+CD90+ cells in culture, cord blood (Example 5); type: cell-based; settings: cytokines, same in presence or absence of Compound 26 (500 nM)
[8] = system: mobilized peripheral blood (mPB) CD34+ cells; assay: Gene correction rate after prestimulation and electroporation with gRNA/Cas9 and oligonucleotide donor (Example 5); type: cell-based; settings: mPB cells prestimulated 4 days in the presence of Compound 26 versus 1 day prior to electroporation; FIG. 13A
Description: Mobilized peripheral blood (mPB) CD34+ or cord blood (CB) CD34+ cells were thawed and pre-stimulated, i.e., cultured, in serum-free media (SFEM media supplemented with cytokines SCF, IL6, TPO, and FLT3L) in the presence or absence of Compound 26 (500 nM). Cells were pre-stimulated 1, 2, 3, or 4 days prior to electroporation with gRNA/Cas9 and oligonucleotide donor. Cells were cultured for an additional 8 days after electroporation and profiled at 2, 4, 6, or 8 days post-electroporation using a Trucount-based method of HSC quantification of CD34, CD90, and CD45RA. Cells were subcultured to maintain cell density at less than 1×10^6 cells/mL. On day 8, genomic DNA was extracted from bulk cell cultures, and correction rate was assessed by qPCR. Number of corrected cells was determined by number of total cells at the indicated timepoint multiplied by the correction rate for that pre-stimulation condition.

[9] = B2M-edited expanded cells, AHR antagonist = Compound 26
[10] = mPB CD34+ cells, 7 days culture, FIGS. 2A-2D

COCCC(C)c1cnc2c(NCCc3c[nH]c4ccccc34)nc(-c3cncc(F)c3)cn12 (stereo not shown) [Compound 26]
increase in CD34+ number [1]: 6 fold | human cells in the periphery of the mice showing loss of target protein (average) (NSG mice [2]; [9]): > 75% | increase in engraftment compared to mice receiving vehicle-treated cells (NSG mice [2]; [9]): greater than 2 fold | engraftment in NSG mice (NSG mice [2]): significant increase | AHR antagonism in the dioxin response element luciferase reporter assay (AHR): complete AHR antagonism | increase in potency compared to SR1 (AHR; dioxin response element luciferase reporter assay): 12 fold | CD34+CD90+ cells in expanded culture versus vehicle-treated cells ([3]; B2M-edited cells): 3.4 fold | loss of the target protein (B2M) ([3]; mPB and BM CD34+ cells edited with CRISPR/Cas9 RNPs): 84% | quantity of GFP+CD34+CD90+ cells ([4]; GFP lentivirus-transduced mPB CD34+ cells, 7 days, versus vehicle or no treatment): increased the quantity of GFP+CD34+CD90+ cells to a greater extent than vehicle treatment | editing rates ([4]; both mPB and BM CD34+ cells, CRISPR/Cas9 B2M): 80% | quantities of total cells, CD34+ cells, and CD34+CD90+ cells relative to vehicle-treated and untreated cells ([4]; cells subject to CRISPR/Cas9-mediated B2M editing, FIGS. 5A-5E): substantially higher quantities | quantities of total cells, CD34+ cells, and CD34+CD90+ cells relative to vehicle-treated and untreated cells ([4]; cells subject to lentiviral transduction, FIGS. 3A-3E): substantially higher quantities | quantity of CD34+CD90+ cells relative to vehicle-treated and untreated cells [4, 10]: substantial increase | total quantity of cells relative to vehicle-treated cells [4, 10]: increase in the total quantity of cells | retention of B2M− phenotype relative to vehicle-treated cells following transplantation (NSG mice [5]; NSG mice): greater retention | improvement in engraftment compared to vehicle-cultured cells (NSG mice [5]; edited, expanded cells, both the PB and BM of mice after 16 weeks): greater than 2 fold | engraftment rates relative to minimally-manipulated cells (NSG mice [5]; expanded, edited mPB and BM cells, FIGS. 7A-7N): higher engraftment rates | editing rates following transplantation into NSG mice (NSG mice [5]; mPB and BM CD34+ cells): maintained | engraftment compared to minimally manipulated and vehicle controls (NSG mice [5]; mPB and BM hematopoietic stem cells transplanted into NSG mice): increased engraftment | engraftment rates relative to vehicle-cultured cells (NSG mice [5]; transduced/edited, expanded mPB cells in NSG mice): higher engraftment rates | days in culture after which substantially all CD34+CD90+ cells exit the G0 phase and enter the replicative cell cycle [6]: about 3 days | days in culture after which substantially all CD34+CD90+ cells exit the G0 phase and enter the replicative cell cycle [7]: about 3 days | rates of gene correction [8]: higher rates of gene correction

CC(C)n1cnc2c(NCCc3ccc(O)cc3)nc(-c3csc4ccccc34)nc21 [SR1, reference compound]
increase in CD34+ number [1]: 6 fold | engraftment in NSG mice (NSG mice [2]): significant increase

Source: patent US20190314407A1, “COMPOSITIONS AND METHODS FOR THE EXPANSION OF HEMATOPOIETIC STEM AND PROGENITOR CELLS” (Magenta Therapeutics Inc., priority 2017, published 2019)
